{
  "source": "patent US20100285127A1",
  "about": "“TASTE MASKED PHARMACEUTICAL COMPOSITIONS OF S-ALKYLISOTHIOURONIUM DERIVATIVES” (priority 2007, published 2010)",
  "origin": "cited, not measured here",
  "conditions": "Zherebchenko 1968; Goloschapova 1981",
  "data": [
    {"substance": "S-ethylisothiouronium diethylphosphate [Difetur]", "values": [
      {"measurement": "radioprotective effects", "result": "radioprotective effects"}
    ]}
  ]
}
